Results reported in patent publication US20230393148A1, “KITS, REAGENTS AND METHODS FOR THE ASSESSMENT OF LIVER DISEASES” (The General Hospital Corporation, priority 2020, published 2023).
* marks the point of attachment. Hexenoyl(3E) = CC/C=C/CC(=O)*

Experiments:
[1] = system: CASP8; test: Plasma CASP8 by Olink proximity extension assay, randomized trial of tesamorelin vs placebo; type: in vivo, human; settings: HIV-associated NAFLD, tesamorelin 2 mg daily, change over 12 months, plasma NPX, mean ± SD, n = 20
Method: (§1) A randomized, double blind trial in which individuals with HIV-associated NAFLD were assigned to receive the growth hormone-releasing hormone (GHRH) analogue tesamorelin 2 mg daily or identical placebo for 12 months (7). […] Changes in circulating levels of proteins corresponding to top leading-edge genes in pathways responsive to tesamorelin between treatment groups were investigated, and the relationships of these proteins to histologic, radiographic, and transcriptomic indices was assessed to identify plasmatic markers of NAFLD/NASH and elucidate potential mechanisms of tesamorelin response.
(§2) 61 men and women 18-70 years old who had documented HIV infection and liver steatosis as defined by hepatic fat fraction ≥5% on ^1H-magnetic resonance spectroscopy (^1H-MRS) were enrolled. […]
(§3) Study procedures for the parent clinical trial have been described in detail elsewhere (7, 9). […] Serum IGF-1 was measured using standard techniques (Quest Laboratories).
(§4) For this analysis, change in targeted proteins over 12 months was assessed using an Olink® Multiplex proximity extension assay (PEA) platform. The PEA is an affinity-based assay that characterizes abundance levels of pre-determined sets of proteins. […] The resultant DNA sequence is detected and quantified using standard real-time PCR on the Fluidigm BioMark™ HD real-time PCR platform. […]

[2] = system: CCL20; test: Plasma CCL20 by Olink proximity extension assay, randomized trial of tesamorelin vs placebo; type: in vivo, human; settings: HIV-associated NAFLD, tesamorelin 2 mg daily, change over 12 months, plasma NPX, mean ± SD, n = 20
Method: as §1, §2, §3, §4

[3] = system: CRTAM; test: Plasma CRTAM by Olink proximity extension assay, randomized trial of tesamorelin vs placebo; type: in vivo, human; settings: HIV-associated NAFLD, tesamorelin 2 mg daily, change over 12 months, plasma NPX, mean ± SD, n = 20
Method: as §1, §2, §3, §4

[4] = system: CSF1; test: Plasma CSF1 by Olink proximity extension assay, randomized trial of tesamorelin vs placebo; type: in vivo, human; settings: HIV-associated NAFLD, tesamorelin 2 mg daily, change over 12 months, plasma NPX, mean ± SD, n = 20
Method: as §1, §2, §3, §4

[5] = system: CXCL12; test: Plasma CXCL12 by Olink proximity extension assay, randomized trial of tesamorelin vs placebo; type: in vivo, human; settings: HIV-associated NAFLD, tesamorelin 2 mg daily, change over 12 months, plasma NPX, mean ± SD, n = 20
Method: as §1, §2, §3, §4

[6] = system: NCR1; test: Plasma NCR1 by Olink proximity extension assay, randomized trial of tesamorelin vs placebo; type: in vivo, human; settings: HIV-associated NAFLD, tesamorelin 2 mg daily, change over 12 months, plasma NPX, mean ± SD, n = 20
Method: as §1, §2, §3, §4

[7] = system: TGFB1; test: Plasma TGFB1 by Olink proximity extension assay, randomized trial of tesamorelin vs placebo; type: in vivo, human; settings: HIV-associated NAFLD, tesamorelin 2 mg daily, change over 12 months, plasma NPX, mean ± SD, n = 20
Method: as §1, §2, §3, §4

[8] = system: TNFRSF21; test: Plasma TNFRSF21 by Olink proximity extension assay, randomized trial of tesamorelin vs placebo; type: in vivo, human; settings: HIV-associated NAFLD, tesamorelin 2 mg daily, change over 12 months, plasma NPX, mean ± SD, n = 20
Method: as §1, §2, §3, §4

[9] = system: VEGFA; test: Plasma VEGFA by Olink proximity extension assay, randomized trial of tesamorelin vs placebo; type: in vivo, human; settings: HIV-associated NAFLD, tesamorelin 2 mg daily, change over 12 months, plasma NPX, mean ± SD, n = 20
Method: as §1, §2, §3, §4

[10] = system: hallmark gene pathways; settings: liver biopsy, pre- to post-treatment (12 months), tesamorelin versus placebo, GSEA FDR <0.05; cited from earlier work

## trans-3-hexenoyl-GHRH(1-44)-NH2 ({Hexenoyl(3E)}-YADAIFTNSYRKVLGQLSARKLLQDIMSRQQGESNQERGARARL-NH2) [Tesamorelin]
[1]
  Log2-Fold change plasma CASP8: −0.37 ± 0.72
[2]
  Log2-Fold change plasma CCL20: −0.28 ± 0.88
[2]; listed as tesamorelin
  Log2-Fold change plasma CCL20: −0.28±0.88
[3]
  Log2-Fold change plasma CRTAM: −0.35 ± 0.73
[4]
  Log2-Fold change plasma CSF1: −0.17±0.21
[4]; listed as tesamorelin
  Log2-Fold change plasma CSF1: −0.17±0.21
[5]
  Log2-Fold change plasma CXCL12: −0.03 ± 0.18
[6]
  Log2-Fold change plasma NCR1: −0.20 ± 0.52
[7]
  Log2-Fold change plasma TGFB1: −0.35±0.56
[7]; listed as tesamorelin
  Log2-Fold change plasma TGFB1: −0.35±0.56
[8]
  Log2-Fold change plasma TNFRSF21: −0.13 ± 0.22
[9]
  Log2-Fold change plasma VEGFA: −0.20±0.35
[9]; listed as tesamorelin
  Log2-Fold change plasma VEGFA: −0.20±0.35
[10]
  13 hepatic gene sets involved in inflammation, tissue repair, and cell division, regulation with treatment: downregulated
  Hepatic gene set pertaining to oxidative phosphorylation, regulation with treatment: upregulated
